Data set [1] can be described thus: Safety evaluation in the hepatic impairment single dose study (Example 1). Type of data set: in vivo, human. The method, then: The safety evaluation was based upon the review of the individual values (clinically significant abnormalities) and descriptive statistics (summary tables). All safety analyses were performed using the safety population and were based on the on-treatment phase (defined as the time from investigational medicinal product [IMP] administration up to Day 3 visit, inclusive). For laboratory, vital signs, and ECG data, potentially clinically significant abnormalities (PCSAs) were analyzed using the 24 May 2014 version of the PCSA list. Electrocardiogram parameters were obtained from automatic reading of 12-lead ECGs and were analyzed as raw parameter values and change from baseline. For vital signs, raw data and changes from baseline were summarized using descriptive statistics by population group and time point. All individual data for biochemistry, hematology, and qualitative urinary tests were listed.
Adverse events were coded according to the Medical Dictionary for Regulatory Activities (MedDRA v.19.1) and classified into predefined standard categories according to chronological criteria: • Pretreatment adverse events (AEs), defined as AEs that occurred, worsened (according to Investigator opinion), or became serious during the pretreatment phase (defined as the time between the signature of the informed consent and IMP administration [excluded]); • Treatment-emergent AEs (TEAEs), defined as AEs that occurred, worsened, or became serious during the on-treatment phase; • Posttreatment AEs, defined as AEs that occurred, worsened, or became serious during the posttreatment phase (defined as the time after Day 3 visit through completion of EOS).
All AEs reported in the study were listed and sorted by subject, onset date and time. The number and percentage of subjects with TEAEs were listed by population group, primary system-organ class (SOC), preferred term (PT), and AE diagnosis.

The nature of data set [2]: Safety evaluation in the renal impairment single dose study (Example 3). Type of data set: in vivo, human. The method, then: The safety evaluation was based on the review of the individual values (clinically significant abnormalities) and descriptive statistics (summary tables). All safety analyses were performed using the safety population and based on the on-treatment phase (defined as the start time of investigational medicinal product [IMP] administration up to Day 3 visit). For laboratory, vital sign, and ECG data, the Potentially Clinically Significant Abnormalities (PCSAs) were analyzed using PCSA list (Version 3.0, 24 May 2014). Electrocardiogram parameters were obtained from automatic reading of the 12-lead ECGs and were analyzed as raw parameter value and change from baseline. For vital signs, raw data and changes from baseline were summarized using descriptive statistics by population group and time of measurement. All individual data for biochemistry, hematology, and qualitative urinary tests were listed.
Vital signs and ECG readings were analyzed as raw parameter value and change from baseline.
Adverse events were coded according to the Medical Dictionary for Regulatory Activities (MedDRA, version 19.1). They were classified into pre-defined standard categories according to chronological criteria: • Pretreatment adverse events: AEs that occurred, worsened (according to the Investigator's opinion) or became serious during the pretreatment phase (defined as the time between the signature of the informed consent and IMP administration [excluded]); • Treatment-emergent adverse events (TEAEs): AEs that occurred, worsened or became serious during the on-treatment phase; • Posttreatment adverse events: AEs that occurred, worsened or became serious during the posttreatment phase (defined as starting after the Day 3 visit and ending with EOS).
The number and percentage of subjects with TEAEs were listed by population group, primary system-organ class (SOC), preferred term (PT), and AE diagnosis.

Where [3] appears, read: hepatic impairment study, single dose.
The mark [4] stands for this setting: renal impairment study, single dose.

With `CCCCCCCC(=O)N[C@H](CN1CCCC1)[C@H](O)c1ccc2c(c1)OCCO2` [eliglustat, N-((1R,2R)-1-(2,3-dihydrobenzo[b][1,4]dioxin-6-yl)-1-hydroxy-3-(pyrrolidin-1-yl)propan-2-yl)octanamide], the “Total number of mild TEAEs observed” value in data set [1] (all groups (healthy, mild HI, moderate HI), in 5 subjects, single dose) was determined as 6. Also, in data set [1] (setting [3]), the “Deaths or other significant AEs” value was “no deaths or other significant AEs”; the Serious adverse events result is on record as “No serious adverse events were reported”; the “Treatment emergent PCSA (laboratory values, vital signs, ECGs)” value is recorded as “no treatment emergent PCSA that were clinically relevant”. In addition, the “TEAEs considered related to study drug by the investigator” value in data set [1] (in 3 subjects: dysgeusia in 2 moderate HI subjects, nausea and headache in 1 healthy subject) is “Four”. In data set [2] (in 1 subject, considered related to study drug: fatigue in a healthy subject), the “Total number of mild TEAEs observed” value is “one”. In data set [2] (setting [4]), the “Deaths or withdrawals due to AEs” value is “no deaths or withdrawals due to AEs”; the Serious adverse events entry is on record as “No serious adverse events were reported”; the “Treatment emergent PCSA (laboratory values, vital signs, ECGs)” value was “no treatment emergent PCSA that were clinically relevant”.

Source of the values: patent publication US10888544B2, “Methods for treating Gaucher disease” (Genzyme Corporation, priority 2017, dated 2021).
